Patent US7378387B2, “Method of suppressing immune response by reducing intracellular content of glutathione in macrophages and monocytes” (Ajinomoto Co., Inc., priority 1997, dated 2008)

Columns and labels:
[1] = test system: COLON 26 transplantable tumor; assay: Survival of COLON 26 advanced tumor-bearing cachectic mice (Example 4); format: in vivo, CDF1 mice; details: oral 1 mg/0.5 ml/h for 10 days, COLON 26 mice; control mice 42
PGE2 = PGE2 in macrophage culture supernatant, advanced tumor-bearing mice (Example 4); format: in vivo, CDF1 mice; details: oral 1 mg/0.5 ml/h for 10 days, COLON 26 mice; control mice 32 ng/ml
Description: After the completion of the above-mentioned incubation, the culture supernatant was recovered. The amount of IL-6 was measured by the proliferation assay using an IL-6-dependent cell strain, MH60, the amount of PGE2 was measured using an ELISA-kit, and the amount of NO was measured using a Griess-Romijn reagent. These measurements were conducted by a method which those skilled in the art usually employ.
The COLON 26 transplantable tumor was implanted subcutaneously in the back portion of CDF1 mice at a density of 5×10^5 cells/mouse. […] Glutathione ethyl ester was orally administered to the mice every day in a dosage of 1 mg/0.5 ml/h. This oral administration was continued for 10 days. The peritoneal cells were collected from the mice in the same manner as in Example 3. Peritoneal macrophages were collected, and suspended in a phenol red-free RPMI 1640 medium containing 10% fetal calf serum to a density 3×10^5 cells/ml. The suspension was charged into a Lab-Tek Chamber Slide (#136439, supplied by Nunc) in an amount of 100 μl, and the incubation was conducted in 5% CO2 at 37° C. for 3 hours. After the nonadherent cells were removed, 200 μl of above-mentioned medium free from serum were added thereto, and 10 μM of monochlorobimane were then added thereto. […]

IL-12 = IL-12 production of MΦ after NAC drinking and/or IL-2 administration (Example 8); format: in vivo, DBA/2 female mice; details: stimulated with LPS and IFNγ; control mice 0 pg/ml
Description: The amount of IL-12 was determined through bioassay using cells of human T cell strain 2D6 (J. Leukocyte Biology, vol. 61, p. 346, 1997).
2D6 cells which had been incubated in an RPMI 1640 medium containing 500 pg/ml of recombinant human IL-12, 50 μM of 2-mercaptoethanol and 10% FCS (fetal calf serum) were moved to a tube, and centrifugally washed three times with the above-mentioned medium without IL-12 and cell density was adjusted to 1×10^5/ml. The cell suspension was added in an amount of 100 μl each to a 96-well flat bottom plate containing a sample serially diluted in advance with an RPMI 1640 medium containing 50 μM of 2-mercaptoethanol and 10% FCS in an amount of 100 μl each. Subsequently, the mixture was charged into a 5% […] incubator of 37° C., and incubated for 48 hours. For final 6 hours, ^3H-TdR was pulsed (a substance adjusted to 370 kBq/ml in an RPMI 1640 medium containing 50 μM of 2-mercaptoethanol and 10% FCS was added in an amount of 50 μl each). The cells a harvested, and the radioactivity was measured using a β counter (Matrix 96, supplied by Packard).

[2] = test system: macrophages within the thoracic cavity of the patient suffering from sarcoidosis; assay: GSH and GSSG content by enzyme recycling method in macrophages of a sarcoidosis patient incubated with NAC (Example 5); format: cell-based, human; details: 5 mM NAC, 3 hours
Description: The amounts of oxidative and reductive monocytes macrophages contained in monocytes preparation separated and collected in a usual manner from the peripheral blood and the thoracic cavity of the patient suffering from sarcoidosis were examined by biochemically measuring the contents of reductive glutathione (GSH) end oxidative glutathione (GSSG) by the enzyme recycling method. The peripheral blood of the healthy person was used as a control.
The peripheral blood of the healthy person and the peripheral blood of the patient suffering from sarcoidosis were collected with heparin. Or 150 ml of a physiological saline solution was injected into the bronchia of the patient using a bronchofiber, and 75 ml of bronchoalveolar lavaged fluid were recovered. Monocytes obtained by separating and purifying both of them using Ficoll-Hypaque (LYMPHOPREP) were suspended in an RPMI 1640 medium containing 10% fetal calf serum, and washed three times to obtain macrophage/monocyte preparation adherent to a glass petri dish for 30 minutes. Subsequently, a group incubated for 3 hours with the addition of 5 mM N-acetylcysteine (NAC) and a group of a medium component alone were prepared. A rubber policeman was used to recover adherent cells from the petri dish. With respect to 5×10^5 macrophages, the following examination was conducted.
The contents of reductive glutathione and oxidative glutathione were measured by the above-mentioned enzyme recycling method. […]
A 10 mM phosphate buffer (590 μl, pH 7.5) containing 0.5 mM EDTA, 100 μl of glutathione reductase (supplied by Boehlinger Mannhein) adjusted to a concentration of 6 u/ml in the same buffer, 50 μl of 4 mM NADPH (supplied by Sigma Co.) prepared with 5% NaHCO3 and 10 μl of the sample were mixed. […] The change in the absorbance of 412 nm at 37° C. over the course of time was measured using a spectrophotometer. […]

CCOC(=O)CNC(=O)[C@H](CS)NC(=O)CC[C@H](N)C(=O)O [GSH-OEt, glutathione monoethyl ester]
average number of survival days [1]: 148 days | amount of PGE2 (PGE2): 6.5 ng/mL

CC(=O)N[C@@H](CS)C(=O)O [NAC, N-acetylcysteine, reference compound]
amount of IL-12 (IL-12): 620 pg/mL | ratio of reductive GSH [2]: exceeded 80% | content of reductive GSH ([2]; without NAC 1.45 μM): 20.45 µM | content of oxidative GSSG ([2]; without NAC 15.85 μM): 4.32 µM
